Assay results: patent US7482379B2, “Propenoyl hydrazides” (priority 2004, dated 2009)
pIC50: −log10 of the molar value. Peptide text beside a SMILES is read from it. * marks the point of attachment. AMC = Cc1cc(=O)oc2cc(N*)ccc12; Cbz = O=C(OCc1ccccc1)*

Tests used:
Gingipain K = Gingipain K (Porphyromonas gingivalis, UniProt Q51817); experiment: biochemical; assay type: biochemical; conditions: for k2 Gingipain K: Table 3, Suc-Ala-Phe-Lys-AMC substrate, pH 8.0; for kinact/KI: pH 8, read-out: kobs/[I] Gingipain K
Gingipain R = Gingipain R inhibition; assay type: biochemical; conditions: Table 3
Clostripain = Clostripain (Hathewaya histolytica, UniProt P09870); conditions: Table 3; Z-Phe-Arg-AMC substrate; pH 7.6
Excerpt: Clostripain. […] All data obtained was processed by pseudo-first order kinetics,

Cathepsin B [1] = biological target: T1, Cathepsin B (Homo sapiens, UniProt P07858); conditions: irreversible inhibition; background art; cited from earlier work
cathepsin L = cathepsin L (Homo sapiens, UniProt P07711); conditions: irreversible inhibition; background art; cited from earlier work
clan CD proteases = conditions: background art; cited from earlier work
S. mansoni legumain [2] = biological target: S. mansoni legumain (Schistosoma mansoni, UniProt P09841, N192C); experiment: S. mansoni legumain (SmAE) inhibition assay; assay type: biochemical
Procedure: Studies with the propenoyl hydrazides using the schistosome legumain […], (Schistosoma mansoni asparaginyl endopeptidase) were also performed. […] The actual active site enzyme concentration is unknown. The lyophilized enzyme ([…]) was reconstituted in 1.5 mL 0.5 M sodium acetate, pH 4.5 containing 4 mM DTT, and left to stand at 37° C. for 3-4 hours to allow for auto-activation of the zymogen. In a black 96-well microtiter plate, 50 μL of activated enzyme was added to an equal volume of 0.1 M citrate-phosphate buffer pH 6.8 containing 4 mM DTT. Inhibitor stock solutions (20 mM) were prepared in DMSO. Serial dilutions (using water) of inhibitor were added (as 1 μL aliquots) to yield concentrations of between 2 and 0.00002 μM inhibitor. […] After incubating various inhibitor concentrations with enzyme, 100 μL of the same buffer containing 20 μM substrate (Cbz-Ala-Ala-Asn-AMC) was added to the wells and the reaction monitored at room temperature with linear kinetics up to 20 minutes. Inhibitors are tested in duplicate. A plot of the RFU/min versus the inhibitor concentration [μM] permitted calculation of an IC50 value and estimation of the kobs/[I].

Papain = biological target: T2, Papain (Carica papaya, UniProt P00784); experiment: Papain incubation inhibition assay; assay type: biochemical; conditions: for kinact/KI: pH 7.5, read-out: kobs/[I] Papain
T2 sequence (P00784 134-345): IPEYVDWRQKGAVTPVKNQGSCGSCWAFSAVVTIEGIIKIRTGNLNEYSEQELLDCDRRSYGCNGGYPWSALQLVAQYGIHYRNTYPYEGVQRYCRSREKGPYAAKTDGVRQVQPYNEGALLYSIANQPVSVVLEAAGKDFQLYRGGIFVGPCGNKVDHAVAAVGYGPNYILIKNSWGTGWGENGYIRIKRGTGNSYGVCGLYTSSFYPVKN
Procedure: Pseudo first-order inactivation rate constants were obtained from plots of ln vt/vo versus time.
The incubation method was also used for papain. The inhibition incubation buffer for papain was 50 mM Hepes buffer at pH 7.5, containing 2.5 mM DTT and 2.5 mM EDTA. The assay used the substrate Z-Phe-Arg-pNA (53.7 μM) in the same buffer. The approximate concentration of papain added to the incubation buffer was 0.29 mg/mL. The release of p-nitroanilide was monitored at 405 nm with a Molecular Devices Thermomax microplate reader.

Cathepsin B [3] = biological target: T1, Cathepsin B; experiment: Cathepsin B incubation inhibition assay; assay type: biochemical
Procedure: Papain and Cathepsin B. The incubation method was used to measure the irreversible inhibition of papain and cathepsin B. […] Pseudo first-order inactivation rate constants were obtained from plots of ln vt/vo versus time.

S. mansoni legumain [4] = conditions: background art, cited from earlier work
human legumain = biological target: T3, human legumain (Homo sapiens, UniProt Q99538); conditions: synthetic substrate; background art; cited from earlier work
T3 sequence (Q99538 18-323): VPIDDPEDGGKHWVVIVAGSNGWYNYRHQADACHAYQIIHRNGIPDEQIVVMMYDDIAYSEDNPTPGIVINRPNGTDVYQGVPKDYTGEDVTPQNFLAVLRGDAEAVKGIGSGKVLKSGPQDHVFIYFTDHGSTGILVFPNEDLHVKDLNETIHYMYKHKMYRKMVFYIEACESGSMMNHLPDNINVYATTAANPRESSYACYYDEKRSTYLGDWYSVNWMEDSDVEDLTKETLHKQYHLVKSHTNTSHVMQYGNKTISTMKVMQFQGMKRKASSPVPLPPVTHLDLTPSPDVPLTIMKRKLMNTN

Sequence of Clostripain (P09870 51-526): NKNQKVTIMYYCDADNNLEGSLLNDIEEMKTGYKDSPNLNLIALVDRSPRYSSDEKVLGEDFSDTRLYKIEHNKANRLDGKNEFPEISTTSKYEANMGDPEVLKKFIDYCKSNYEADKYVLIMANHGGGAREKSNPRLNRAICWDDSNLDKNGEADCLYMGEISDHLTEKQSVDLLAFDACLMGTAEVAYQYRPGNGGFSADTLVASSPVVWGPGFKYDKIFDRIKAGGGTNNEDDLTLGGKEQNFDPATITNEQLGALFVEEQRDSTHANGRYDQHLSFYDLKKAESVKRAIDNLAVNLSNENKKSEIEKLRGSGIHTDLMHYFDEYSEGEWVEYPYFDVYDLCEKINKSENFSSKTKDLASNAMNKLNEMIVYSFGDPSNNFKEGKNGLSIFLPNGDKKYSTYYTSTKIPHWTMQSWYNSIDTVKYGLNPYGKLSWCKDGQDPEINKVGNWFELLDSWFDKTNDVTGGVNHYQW
Sequence of S. mansoni legumain (Schistosoma mansoni, UniProt P09841, N192C) (P09841 32-291 N192C): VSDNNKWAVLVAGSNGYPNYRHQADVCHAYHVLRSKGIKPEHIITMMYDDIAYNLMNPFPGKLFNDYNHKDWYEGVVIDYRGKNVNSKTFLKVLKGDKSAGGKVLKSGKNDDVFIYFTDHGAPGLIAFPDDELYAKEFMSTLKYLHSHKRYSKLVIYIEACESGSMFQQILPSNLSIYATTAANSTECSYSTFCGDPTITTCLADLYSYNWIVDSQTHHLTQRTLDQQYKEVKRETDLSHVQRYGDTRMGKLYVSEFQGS
Sequence of Gingipain K (Q51817 229-1732 limits assumed): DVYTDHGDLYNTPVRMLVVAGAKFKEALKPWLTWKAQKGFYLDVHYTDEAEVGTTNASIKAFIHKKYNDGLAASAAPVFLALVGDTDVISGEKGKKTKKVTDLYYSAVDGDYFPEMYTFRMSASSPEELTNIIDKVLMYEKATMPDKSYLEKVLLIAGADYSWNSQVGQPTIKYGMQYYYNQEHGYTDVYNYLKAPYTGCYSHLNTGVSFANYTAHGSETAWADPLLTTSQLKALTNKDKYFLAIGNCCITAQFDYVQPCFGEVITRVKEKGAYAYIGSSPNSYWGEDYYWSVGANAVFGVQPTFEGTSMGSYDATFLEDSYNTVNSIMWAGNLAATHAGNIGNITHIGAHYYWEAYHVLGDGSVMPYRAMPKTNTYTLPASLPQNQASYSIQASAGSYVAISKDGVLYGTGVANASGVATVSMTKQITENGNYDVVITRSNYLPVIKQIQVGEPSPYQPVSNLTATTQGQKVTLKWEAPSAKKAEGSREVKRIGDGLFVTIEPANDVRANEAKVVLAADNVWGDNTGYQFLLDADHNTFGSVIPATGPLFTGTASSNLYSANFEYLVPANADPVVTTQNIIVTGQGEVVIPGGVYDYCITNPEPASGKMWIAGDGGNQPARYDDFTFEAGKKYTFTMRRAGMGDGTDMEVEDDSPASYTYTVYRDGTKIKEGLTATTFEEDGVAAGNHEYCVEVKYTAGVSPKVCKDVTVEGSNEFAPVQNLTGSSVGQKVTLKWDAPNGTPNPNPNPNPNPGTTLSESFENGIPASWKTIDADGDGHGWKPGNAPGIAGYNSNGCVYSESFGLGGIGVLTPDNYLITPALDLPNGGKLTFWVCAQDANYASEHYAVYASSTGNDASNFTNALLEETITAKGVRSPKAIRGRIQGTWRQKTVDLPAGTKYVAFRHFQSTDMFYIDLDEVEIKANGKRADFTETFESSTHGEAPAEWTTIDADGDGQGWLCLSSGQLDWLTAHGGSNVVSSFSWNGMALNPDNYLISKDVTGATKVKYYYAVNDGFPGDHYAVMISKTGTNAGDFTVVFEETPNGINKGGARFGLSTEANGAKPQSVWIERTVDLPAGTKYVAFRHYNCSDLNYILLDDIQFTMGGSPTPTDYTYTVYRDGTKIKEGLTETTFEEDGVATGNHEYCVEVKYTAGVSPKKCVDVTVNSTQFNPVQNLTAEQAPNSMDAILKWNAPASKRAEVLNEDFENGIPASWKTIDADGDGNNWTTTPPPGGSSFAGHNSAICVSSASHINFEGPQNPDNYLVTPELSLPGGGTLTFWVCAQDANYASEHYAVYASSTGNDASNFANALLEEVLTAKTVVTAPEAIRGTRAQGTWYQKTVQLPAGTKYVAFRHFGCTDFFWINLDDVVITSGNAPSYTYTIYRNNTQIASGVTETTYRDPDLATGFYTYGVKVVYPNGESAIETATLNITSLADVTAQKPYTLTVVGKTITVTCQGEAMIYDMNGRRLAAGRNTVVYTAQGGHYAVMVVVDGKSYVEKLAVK
Sequence of cathepsin L (P07711 114-333, species assumed): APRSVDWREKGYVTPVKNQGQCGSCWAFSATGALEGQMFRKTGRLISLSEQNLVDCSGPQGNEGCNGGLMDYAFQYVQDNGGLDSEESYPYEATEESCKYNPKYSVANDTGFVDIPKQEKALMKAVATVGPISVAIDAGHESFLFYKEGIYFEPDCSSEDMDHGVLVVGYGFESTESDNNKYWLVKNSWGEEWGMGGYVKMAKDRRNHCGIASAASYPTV

| SMILES | k2 Gingipain K (Gingipain K) | k2 Gingipain R (Gingipain R) | k2 Clostripain (Clostripain) | other results |
| --- | --- | --- | --- | --- |
| CC(C)C[C@H](NC(=O)CCc1ccccc1)C(=O)NN(CCCCN)C(=O)C=CC(=O)N(Cc1ccccc1)Cc1ccc2ccccc2c1 | 811,000 M^−1s^−1 | 98 M⁻¹ s⁻¹ | 17,500 M^−1s^−1 | – |
| CC(C)CC(NC(=O)CCc1ccccc1)C(=O)NN(CCCCN)C(=O)C=CC(=O)N(C)Cc1cccc2ccccc12 (stereo not drawn) | 975,000 M^−1s^−1 | 576 M⁻¹ s⁻¹ | 639 M⁻¹ s⁻¹ | – |
| CC(C)CCNC(=O)[C@H](CC(C)C)NC(=O)/C=C/C(=O)O (stereo in doubt) [fumarate derivative of E-64c, trans-HOOCCH═CH—CO-Leu-NH(CH2)2CH(CH3)2] | – | – | – | kapp cathepsin B (Cathepsin B [1]): 625 M⁻¹ s⁻¹; kapp cathepsin L (cathepsin L): 2272 M⁻¹ s⁻¹; inhibition of clan CD proteases (clan CD proteases): do not inhibit |
| C[C@H](NC(=O)OCc1ccccc1)C(=O)N[C@@H](C)C(=O)NN(CC(N)=O)C(=O)/C=C/C(=O)N1CCc2ccccc21 [Cbz-Ala-Ala-AAsn-CH═CH—CO-indoline, N^2—(N-Benzyloxycarbonylalanylalanyl)-N^1-carbamoylmethyl-N^1-trans-(3-(2,3-dihydroindol-1-yloxo)propenoyl)hydrazine] | – | – | – | pIC50 (S. mansoni legumain [2]): 7.15; kinact/KI (Gingipain K): 1 M⁻¹ s⁻¹ |
| C[C@H](NC(=O)OCc1ccccc1)C(=O)N[C@@H](C)C(=O)NN(CC(N)=O)C(=O)/C=C/C(=O)N(Cc1ccccc1)Cc1ccccc1 [Cbz-Ala-Ala-AAsn-CH═CH—CON(Bzl)2, N^2—(N-BenzyloxycarbonylaIanylalanyl)-N^1-carbamoylmethyl-N^1-trans-(3-dibenzylcarbamoylpropenoyl)hydrazine] | – | – | – | pIC50 (S. mansoni legumain [2]): 7.35; kinact/KI (S. mansoni legumain [2]; read-out: kobs/[I]): 5800 M⁻¹ s⁻¹; kinact/KI (Gingipain K): 2 M⁻¹ s⁻¹; kinact/KI (Papain): 1 M⁻¹ s⁻¹ |
| C[C@H](NC(=O)OCc1ccccc1)C(=O)N[C@@H](C)C(=O)NN(CC(N)=O)C(=O)/C=C/C(=O)N(C)Cc1ccccc1 [Cbz-Ala-Ala-AAsn-CH═CH—CON(CH3)Bzl, N^2—(N-Benzyloxycarbonylalanylalanyl)-N^1-carbamoylmethyl-N^1-trans-(3-benzylmethylcarbamoylpropenoyl)hydrazine] | – | – | – | kinact/KI (Gingipain K): 1 M⁻¹ s⁻¹ |
| C[C@H](NC(=O)OCc1ccccc1)C(=O)N[C@@H](C)C(=O)NN(CC(N)=O)C(=O)/C=C/C(=O)NCCc1ccccc1 [Cbz-Ala-Ala-AAsn-CH═CH—CONHCH2CH2Ph, N^2—(N-Benzyloxycarbonylalanylalanyl)-N^1-carbamoylmethyl-N^1-trans-(3-phenethylcarbamoylpropenoyl)hydrazine] | – | – | – | pIC50 (S. mansoni legumain [2]): 6.22; kobs/[I] Papain (Papain; Table 6, legumain specific inhibitors, NI = no inhibition after 20 minutes of incubation): 12 M⁻¹ s⁻¹; kinact/KI (Papain): 12 M⁻¹ s⁻¹ |
| CCOC(=O)/C=C/C(=O)N(CC(N)=O)NC(=O)[C@H](C)NC(=O)[C@H](C)NC(=O)OCc1ccccc1 [Cbz-Ala-Ala-AAsn-CH═CH—COOEt, N^2—(N-BenzyloxycarbonylalanylaIanyl)-N^1-carbamoylmethyl-N^1-trans-(3-ethylesterpropenoyl)hydrazine] | – | – | – | kinact/KI (Gingipain K): 6 M⁻¹ s⁻¹; kinact/KI (Cathepsin B [3]; pH 6, read-out: kobs/[I] Cathepsin B): 1 M⁻¹ s⁻¹ |
| Cc1cc(=O)oc2cc(NC(=O)[C@H](CC(N)=O)NC(=O)[C@H](C)NC(=O)[C@H](C)NC(=O)OCc3ccccc3)ccc12 [Cbz-Ala-Ala-Asn-AMC] (Cbz-Ala-Ala-Asn-{AMC}) | – | – | – | Km (S. mansoni legumain [4]; synthetic substrate): 90 µM; Km (human legumain): 80 µM |
| C[C@H](NC(=O)[C@H](Cc1ccccc1)NC(=O)OCc1ccccc1)C(=O)C=[N+]=[N-] [Cbz-Phe-Ala-CHN2] | – | – | – | inhibition of S. mansoni legumain (S. mansoni legumain [4]): not inhibited |
| CC(C)C[C@H](NC(=O)[C@H]1O[C@@H]1C(=O)O)C(=O)NCCCCN=C(N)N [Example E-64, E-64] | – | – | – | inhibition of S. mansoni legumain (S. mansoni legumain [4]): not inhibited |
| CC(C)CCNC(=O)[C@H](CC(C)C)NC(=O)[C@H]1O[C@@H]1C(=O)O [Example E-64c, E-64c] | – | – | – | inhibition of clan CD proteases (clan CD proteases): do not inhibit |
| CCOC(=O)C=CC(=O)N(CCCN)NC(=O)C(C)NC(=O)CCc1ccccc1 (stereo not drawn) [PhPr-Ala-AOrn-CH═CH—COOEt] | 632,000 M^−1s^−1 | 18 M⁻¹ s⁻¹ | – | – |
| CC(C)CC(NC(=O)CCc1ccccc1)C(=O)NN(CCCNC(=N)N)C(=O)C=CC(=O)N(Cc1ccccc1)Cc1ccccc1 (stereo not drawn) [PhPr-Leu-AArg-CH═CH—CON(CH2Ph)2] | – | 804,000 M^−1s^−1 | 474,000 M^−1s^−1 | – |
| CC(C)CC(NC(=O)CCc1ccccc1)C(=O)NN(CCCNC(=N)N)C(=O)C=CC(=O)NCc1ccccc1 (stereo not drawn) [PhPr-Leu-AArg-CH═CH—CONHCH2Ph] | – | 555,000 M^−1s^−1 | 287,000 M^−1s^−1 | – |
| CCOC(=O)C=CC(=O)N(CCCNC(=N)N)NC(=O)C(CC(C)C)NC(=O)CCc1ccccc1 (stereo not drawn) [PhPr-Leu-AArg-CH═CH—COOEt] | 1,580 M^−1s^−1 | – | 69,600 M^−1s^−1 | – |
| CC(C)C[C@H](NC(=O)CCc1ccccc1)C(=O)NN(CCCCN)C(=O)C=CC(=O)N(Cc1ccccc1)Cc1ccc(F)cc1 [PhPr-Leu-ALys-CH═CH—CON(Bzl)-p-CH2C6H4F] | 801,000 M^−1s^−1 | 75 M⁻¹ s⁻¹ | 13,800 M^−1s^−1 | – |
| CC(C)CC(NC(=O)CCc1ccccc1)C(=O)NN(CCCCN)C(=O)C=CC(=O)N(Cc1cccc2ccccc12)Cc1cccc2ccccc12 (stereo not drawn) [PhPr-Leu-ALys-CH═CH—CON(CH2-1-naphthyl2] | 1,890,000 M^−1s^−1 | 214 M⁻¹ s⁻¹ | 2,250 M^−1s^−1 | – |
| CC(C)CC(NC(=O)CCc1ccccc1)C(=O)NN(CCCCN)C(=O)C=CC(=O)N(Cc1ccccc1)Cc1ccccc1 (stereo not drawn) [PhPr-Leu-ALys-CH═CH—CON(CH2Ph)2] | 2,130,000 M^−1s^−1 | 65 M⁻¹ s⁻¹ | 20,000 M^−1s^−1 | – |
| CC(C)CC(NC(=O)CCc1ccccc1)C(=O)NN(CCCCN)C(=O)C=CC(=O)N(C)Cc1ccccc1 (stereo not drawn) [PhPr-Leu-ALys-CH═CH—CON(Me)CH2Ph] | 1,360,000 M^−1s^−1 | 79 M⁻¹ s⁻¹ | 6,000 M^−1s^−1 | – |
| CC(C)C[C@H](NC(=O)CCc1ccccc1)C(=O)NN(CCCCN)C(=O)C=CC(=O)NCc1ccccc1 [PhPr-Leu-ALys-CH═CH—CONHCH2Ph] | 236,000 M^−1s^−1 | 20 M⁻¹ s⁻¹ | 1,050 M^−1s^−1 | – |
| CC(C)CC(NC(=O)CCc1ccccc1)C(=O)NN(CCCCN)C(=O)C=CC(=O)OCc1ccccc1 (stereo not drawn) [PhPr-Leu-ALys-CH═CH—COOCH2Ph] | – | 632 M⁻¹ s⁻¹ | 20,500 M^−1s^−1 | – |
| CC(C)C[C@H](NC(=O)CCc1ccccc1)C(=O)NN(CCCN)C(=O)C=CC(=O)N(Cc1ccccc1)Cc1ccccc1 [PhPr-Leu-AOrn-CH═CH—CON(CH2Ph)2] | 61,600 M^−1s^−1 | 541 M⁻¹ s⁻¹ | 541 M⁻¹ s⁻¹ | – |
| CC(C)C[C@H](NC(=O)CCc1ccccc1)C(=O)NN(CCCN)C(=O)C=CC(=O)NCc1ccccc1 [PhPr-Leu-AOrn-CH═CH—CONHCH2Ph] | 24,700 M^−1s^−1 | 71 M⁻¹ s⁻¹ | – | – |
| CCOC(=O)C=CC(=O)N(CCCN)NC(=O)[C@H](CC(C)C)NC(=O)CCc1ccccc1 [PhPr-Leu-AOrn-CH═CH—COOEt] | 927,000 M^−1s^−1 | 32 M⁻¹ s⁻¹ | 788 M⁻¹ s⁻¹ | kobs/[I] Cathepsin B (Cathepsin B [3]; Table 5, gingipain and clostripain specific inhibitors): 3 M⁻¹ s⁻¹ |
